Test [1] concerns the target T1, SaCoaA (prokaryotic type II pantothenate kinase) (Staphylococcus aureus, UniProt Q8NVG0).
T1 construct: gene coaW; recombinant from pET-28a(+) (pET-Sa-coaA) in E. coli BL21 (DE3), nickel-resin purified, His-tag
T1 sequence (Q8NVG0 1-267): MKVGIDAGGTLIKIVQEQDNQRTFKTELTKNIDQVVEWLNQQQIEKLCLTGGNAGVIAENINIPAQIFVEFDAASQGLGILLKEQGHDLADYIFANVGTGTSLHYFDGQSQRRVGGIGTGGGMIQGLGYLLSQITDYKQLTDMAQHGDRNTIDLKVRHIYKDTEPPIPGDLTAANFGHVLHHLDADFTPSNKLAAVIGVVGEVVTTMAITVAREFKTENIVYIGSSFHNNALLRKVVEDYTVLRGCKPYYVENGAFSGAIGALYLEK
As to the kind of experiment: radiometric pantothenate kinase assay with D-[…]pantothenate. It counts as biochemical.

Test [2] deals with T2, EcCoaA (prokaryotic type I pantothenate kinase) (Escherichia coli, UniProt P0A6I3).
T2 construct: gene coaA; recombinant from pET15b/bPanK in E. coli BL21 (DE3), nickel-resin purified, His-tag
T2 sequence (P0A6I3 1-316): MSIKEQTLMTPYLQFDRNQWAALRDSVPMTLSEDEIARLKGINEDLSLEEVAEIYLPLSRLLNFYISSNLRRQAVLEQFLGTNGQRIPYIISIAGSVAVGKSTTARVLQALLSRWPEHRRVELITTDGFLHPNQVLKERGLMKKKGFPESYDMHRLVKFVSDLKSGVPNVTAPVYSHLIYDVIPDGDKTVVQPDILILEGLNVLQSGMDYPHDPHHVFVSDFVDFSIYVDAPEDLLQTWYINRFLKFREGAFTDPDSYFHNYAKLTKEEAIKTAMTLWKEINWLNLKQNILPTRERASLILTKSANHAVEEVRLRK
The test is described as above. Format: biochemical.

What is called IC50 is the concentration that inhibits the measured activity by half. A low value points to greater potency in that assay.

As for `CC(C)(CO)[C@@H](O)C(=O)NCCCO` [d-pantothenol], the results for the IC50 in test [1] and in test [2] were 1.68 mM and 6.06 mM, respectively.
